Data published in patent US20160235752A1, “COMPOSITIONS, METHODS OF USE, AND METHODS OF TREATMENT” (THE UNIVERSITY OF NEW ORLEANS, priority 2013, published 2016).
≈ marks a conversion by molar mass, not a printed value.

Experiments:
[1] = system: Candida glabrata (ATCC no. 48435); experiment: MIC determination by broth microdilution (NCCLS), visual scoring; assay type: cell-based; details: for MIC80: Nakaseomyces glabratus, ATCC48435, read-out: MIC80 C. glabrata
[2] = system: Candida albicans (ATCC no. 10231); experiment: as above; assay type: cell-based; details: for MIC80: Candida albicans, ATCC10231, read-out: MIC80 C. albicans
How it was run: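 NCCLS broth microdilution in RPMI 1640 with 10 mM HEPES, final compound 0.5–128 μg/mL, DMSO ≤1%. Inoculum from 0.5 McFarland stock diluted 1:50; incubated 35 °C for 48–72 h. MIC scored visually as lowest concentration giving ~80% growth reduction versus drug-free wells.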

[3] = system: Candida albicans (ATCC no. 10231) and Candida glabrata (ATCC no 48435); experiment: Antifungal activity, text statements that do not say which fungus; assay type: cell-based
Procedure: The antifungal activity of the 2,4,6-pyrimidinetrione analogs shown in Schemes 2-6 were evaluated in vitro using Candida albicans (ATCC no. 10231) and Candida glabrata (ATCC no 48435). All assays were done in accordance with NCCLS reference documents^29. The results of these screenings are summarized in Tables 1-9 as the minimal inhibitory concentrations that inhibited more than 80% fungal growth as compared to the positive controls in 1% DMSO and RPMI media. All MIC screens were done using a visual scoring method as opposed to spectroscopic methods of analysis, due to the physical properties of many of the compounds altering their absorbance spectra relative to the positive, negative and drug controls.
None of the compounds tested over the course of these studies were soluble in water and DMSO was used to dilute each compound tested. Master stock concentrations of all tested compounds were prepared to ensure that the maximum final concentration of DMSO was 1% or less. Subsequent 2-fold serial dilutions were made using sterile water to a final concentration of 1280-5.00 μg/ml. A final 10-fold dilution of each drug was made by aliquotting 0.1 mL of each drug dilution into 0.9 mL of fungal suspension in RPMI 1640 media with 10 mM HEPES buffer added (see methodology below), giving final concentrations tested in the range of 128-0.5 μg/ml.
Antifungal susceptibility studies and minimal inhibitory concentrations (MIC) values for Candida albicans (ATCC no. 10231) and Candida glabrata (ATCC no. 48435) were determined by the broth microdilution technique in accordance with NCCLS reference documents. Microdilution panels ranged from 0.5 to 128 μg/mL. All organisms were subcultured on Sabouraud agar and passaged to ensure purity and viability. The initiating inocula were prepared by picking 5-7 isolated colonies ˜1 mm in diameter from freshly prepared YM agar plates. […] Growth was scored visually. […]

[4] = system: Vero cells (African green monkey kidney cells-ATCC no. CRL-1651); experiment: In vitro mammalian cell toxicity (Promega CellTiter 96, MTT); assay type: cell-based; details: cells from the kidney origin; 24 hours; concentration not given
Procedure: Finally, in vitro mammalian cell toxicity studies were done using both mammalian kidney cells and human liver cells (Vero (kidney) cells-ATCC no. CRL-1651 and Hep G2 (liver) ATCC no. HB-8065) on all derivatives that had antifungal activity of less than 8 μg/mL. Cytotoxicity studies were performed in accordance with Promega CellTiter 96 Non-RadioactivCell Proliferation Assay (cat # G4000). The data is presented as the percent cells that remain viable, compared to the negative control, which was set to 100%. BA22, BA23 and BA73 had minimal toxicity in the kidney cells, with over 80% cells viable even at a concentration 10 times higher than the MIC (Table 7).
Cytotoxicity was determined using non-cancerous Vero cells (African green monkey kidney cells-ATCC no. CRL-1651) and Hep G2 (liver) (ATCC no. HB-8065) cells in accordance with Promega CellTiter 96 Non-RadioactivCell Proliferation Assay (cat # G4000). Cells were grown for 24 h at 37° C. and 5% CO2 in a 96-well culture plate. All compounds with MIC≦8 μg/ml were further screened in the MTT assays using both cell types. Compounds that fit these criteria were diluted in media to the testing dilution amounts: the MIC concentration (shown in respective tables; 5×MIC; 10×MIC and 100×MIC. The media used to grow cells was DMEM containing 10% FBS and 2%. Cells were incubated in the presence of the compounds for 24 hours at 37° C. and 5% CO2. Tetrazolium dye solution was added to each well and allowed to incubate for 1-4 h. Stabilization/Stop solution was added and allowed to sit at room temperature for 1 h. Formazan product was scored spectrophotometrically with an automatic plate reader set at 570 nm. 0.1% saponin was used as a positive control. 1% DMSO controls were also used since the compounds were reconstituted in DMSO.

[5] = system: C. albicans; experiment: Colony formation on agar plates enriched with BA22; assay type: cell-based, Candida albicans; details: agar plates enriched with a range of BA22 concentrations; data not shown
Text: Considering the significant growth inhibition and lack of overall lack of cytotoxicity of many of the phenylhydrazones, we further explored potential mechanisms of action using the compound BA22 as a representative drug. We initially observed that in the presence of BA22, C. albicans formed small colonies similar to respiration deficient ‘petite’ mutants previously described for Saccharomyces. […] This phenotype somewhat resembles that of respiration deficient ‘petite’ mutants, which are unable to utilize non-fermentable carbon sources such as glycerol and ethanol^30. We therefore determined if BA22 affected the ability of C. albicans or C. glabrata to use glycerol or ethanol as carbon sources. The concentrations of BA22 required to inhibit the growth of either fungi were much lower when glycerol or ethanol is provided as a carbon source versus glucose (FIG. 2). […] Growth inhibition occurred at higher BA22 concentrations in glucose medium, possibly indicating an additional secondary mechanism.

[6] = system: C. glabrata strain CS117.93; experiment: Testing for respiratory deficiencies: growth in YPD, YPG, YPE; assay type: cell-based, Candida glabrata
Procedure: (§1) FIGS. 2A and 2B illustrates BA22 activity is enhanced when Candida growth depends upon non-fermentable carbon sources. C. albicans strain SC5314 (FIG. 2A) or C. glabrata strain CS117.93 (FIG. 2B) were grown in medium with 2% glucose (YPD), 3% glycerol (YPG) or 3% ethanol (YPE) at pH 6.5, in dose response experiments with BA22. After 24 hours incubation at 30° C., growth was measured by OD600nm. Growth at each concentration of BA22 is shown as % growth relative to the minus drug (DMSO) control. Data shown is representative of two repeat experiments.
(§2) Considering the significant growth inhibition and lack of overall lack of cytotoxicity of many of the phenylhydrazones, we further explored potential mechanisms of action using the compound BA22 as a representative drug. We initially observed that in the presence of BA22, C. albicans formed small colonies similar to respiration deficient ‘petite’ mutants previously described for Saccharomyces. […] We therefore determined if BA22 affected the ability of C. albicans or C. glabrata to use glycerol or ethanol as carbon sources. […]
(§3) Respiratory deficiencies were examined using YPD (2% glucose), YPE (3% ethanol), or YPG (3% glycerol)^31. […] After 24 and 48 hours incubation at 30° C., growth was quantified by measuring OD600nm using a BioTek plate reader. Growth at each BA concentration was then expressed as % growth vs. the DMSO control of the same medium.

[7] = system: C. albicans strain SC5314; experiment: as above; assay type: cell-based, Candida albicans
Procedure: as §1, §2, §3

[8] = Table 7, Phenylhydrazones of 5-Acylpyrimidinetriones
[9] = Table 5, Schiff Bases of 5-acylpyrimidinetriones
[10] = YPG 3% glycerol or YPE 3% ethanol versus YPD 2% glucose, pH 6.5, 30° C., OD600nm

Row | SMILES | inhibition of fungal growth (in words) [3] | MIC80 C. glabrata [1, 9] | reduction in cell viability [4] [%] | MIC80 [1] [µg/mL] | MIC80 [2] [µg/mL] | further results
1 | CC(=NNc1ccc([N+](=O)[O-])cc1)C1C(=O)NC(=O)N(c2ccccc2)C1=O (centres unmarked) [BA28] | greatly reduced inhibition |  |  |  |  | MIC80 C. glabrata [1, 8]: 16 µg/mL (≈ 42 µM); MIC80 C. albicans [2, 8]: 31.5 µg/mL (≈ 82.6 µM)
2 | CN1C(=O)C(C=Nc2ccccc2O)C(=O)N(C)C1=O [BA94] |  | — (none of the 5-acyl-2,4,6-pyrimidinetriones, 5-alkylated pyrimidinetriones or the 5,5-dialkylated pyrimidinetriones showed antifungal activity through 125 μg/mL) | ~35 |  |  | inhibitory activity of Candida albicans ([2]; Schiff base derivatives, Table 5): showed inhibitory activity; MIC80 C. albicans ([2]; Table 5, values marked *: compound displayed MIC with <50% inhibition): 8* μg/mL
3 | C/C(=N\Nc1ccc([N+](=O)[O-])cc1)C1C(=O)NC(=O)NC1=O [BA25, 5-{(1E)-1-[2-(4-Nitrophenyl)hydrazinylidene]ethyl}pyrimidine-2,4,6-trione] |  |  | ~35 | 2 (≈ 6.55 µM) | 2 (≈ 6.55 µM) | 
4 | O=C1NC(=O)C(/C=N/Nc2ccc([N+](=O)[O-])cc2)C(=O)N1 [BA22, 5-{(E)-[2-(4-nitrophenyl)hydrazinylidene]methyl}pyrimidine-2,4,6-trione] |  |  |  | 1 (≈ 3.43 µM) | 2 (≈ 6.87 µM) | C. albicans colony formation [5]: significantly delayed in a dose dependent manner, eventually forming small colonies; activity when Candida growth depends upon non-fermentable carbon sources ([6]; FIG. 2B, 24 hours, 30° C., % growth relative to DMSO control): enhanced; concentrations of BA22 required to inhibit the growth, glycerol or ethanol versus glucose [6, 10]: much lower; activity when Candida growth depends upon non-fermentable carbon sources ([7]; FIG. 2A, 24 hours, 30° C., % growth relative to DMSO control): enhanced; concentrations of BA22 required to inhibit the growth, glycerol or ethanol versus glucose [7, 10]: much lower
5 | O=C1NC(=O)C(C=Nc2cccc(O)c2)C(=O)N1 [BA96] | inactive | — (none of the 5-acyl-2,4,6-pyrimidinetriones, 5-alkylated pyrimidinetriones or the 5,5-dialkylated pyrimidinetriones showed antifungal activity through 125 μg/mL) |  |  |  | MIC80 C. albicans [2, 9]: — (none of the 5-acyl-2,4,6-pyrimidinetriones, 5-alkylated pyrimidinetriones or the 5,5-dialkylated pyrimidinetriones showed antifungal activity through 125 μg/mL)
6 | CN1C(=O)C(C=Nc2cccc(O)c2)C(=O)N(C)C1=O [BA95] | inactive | — (none of the 5-acyl-2,4,6-pyrimidinetriones, 5-alkylated pyrimidinetriones or the 5,5-dialkylated pyrimidinetriones showed antifungal activity through 125 μg/mL) |  |  |  | MIC80 C. albicans [2, 9]: — (none of the 5-acyl-2,4,6-pyrimidinetriones, 5-alkylated pyrimidinetriones or the 5,5-dialkylated pyrimidinetriones showed antifungal activity through 125 μg/mL)
7 | C/C(=N\Nc1ccccc1)C1C(=O)N(C)C(=O)N(C)C1=O [BA78, 1,3-dimethyl-5-[(1E)-1-(2-phenylhydrazinylidene)ethyl]pyrimidine-2,4,6-trione] |  |  | ~35 | 2 (≈ 6.94 µM) | 2 (≈ 6.94 µM) | 
